According to PMC8449129, “Single tracer-based protocol for broad-spectrum kinase profiling in live cells with NanoBRET” (STAR Protocols, 2021):

Tests used:
Experiment in all cases: cell-based
Design in all cases: NanoBRET live-cell target engagement; % occupancy from displacement of tracer K10 on NanoLuc-kinase fusions, mean n=3
Conditions in all cases: HEK293, read-out: % inhibition
CDK10 = CDK10 (Homo sapiens, UniProt Q15131)
In short: (§1)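 Live-cell NanoBRET target engagement: cells expressing kinase–NanoLuc fusion with tracer treated with compound 2 h at 37 °C, 5% CO2. BRET read from donor (450 nm) and acceptor (610/630 nm) emission with 20 μM extracellular NanoLuc inhibitor; % occupancy calculated relative to tracer+DMSO and zero-BRET controls.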

NUAK1 = NUAK1 (Homo sapiens, UniProt O60285)
In short: as §1

PHKG2 = PHKG2 (Homo sapiens, UniProt P15735)
In short: as §1

FER = FER (Homo sapiens, UniProt P16591)
In short: as §1

JAK3 = JAK3 (Homo sapiens, UniProt P52333)
In short: as §1

AAK1 = AAK1 (Homo sapiens, UniProt Q2M2I8)
In short: as §1

RPS6KA6 = RPS6KA6 (Homo sapiens, UniProt Q9UK32)
In short: as §1

CDKL2 = CDKL2 (Homo sapiens, UniProt Q92772)
In short: as §1

ERN1 = ERN1 (Homo sapiens, UniProt O75460)
In short: as §1

CDK9 = CDK9 (Homo sapiens, UniProt P50750)
In short: as §1

SNRK = SNRK (Homo sapiens, UniProt Q9NRH2)
In short: as §1

CSNK1A1L = CSNK1A1L (Homo sapiens, UniProt Q8N752)
In short: as §1

NLK = NLK (Homo sapiens, UniProt Q9UBE8)
In short: as §1

INSR = INSR (Homo sapiens, UniProt P06213)
In short: as §1

BMP2K = BMP2K (Homo sapiens, UniProt Q9NSY1)
In short: as §1

MARK4 = MARK4 (Homo sapiens, UniProt Q96L34)
In short: as §1

LIMK1 = LIMK1 (Homo sapiens, UniProt P53667)
In short: as §1

STK4 = STK4 (Homo sapiens, UniProt Q13043)
In short: as §1

Sequence of AAK1 (Q2M2I8 whole entry): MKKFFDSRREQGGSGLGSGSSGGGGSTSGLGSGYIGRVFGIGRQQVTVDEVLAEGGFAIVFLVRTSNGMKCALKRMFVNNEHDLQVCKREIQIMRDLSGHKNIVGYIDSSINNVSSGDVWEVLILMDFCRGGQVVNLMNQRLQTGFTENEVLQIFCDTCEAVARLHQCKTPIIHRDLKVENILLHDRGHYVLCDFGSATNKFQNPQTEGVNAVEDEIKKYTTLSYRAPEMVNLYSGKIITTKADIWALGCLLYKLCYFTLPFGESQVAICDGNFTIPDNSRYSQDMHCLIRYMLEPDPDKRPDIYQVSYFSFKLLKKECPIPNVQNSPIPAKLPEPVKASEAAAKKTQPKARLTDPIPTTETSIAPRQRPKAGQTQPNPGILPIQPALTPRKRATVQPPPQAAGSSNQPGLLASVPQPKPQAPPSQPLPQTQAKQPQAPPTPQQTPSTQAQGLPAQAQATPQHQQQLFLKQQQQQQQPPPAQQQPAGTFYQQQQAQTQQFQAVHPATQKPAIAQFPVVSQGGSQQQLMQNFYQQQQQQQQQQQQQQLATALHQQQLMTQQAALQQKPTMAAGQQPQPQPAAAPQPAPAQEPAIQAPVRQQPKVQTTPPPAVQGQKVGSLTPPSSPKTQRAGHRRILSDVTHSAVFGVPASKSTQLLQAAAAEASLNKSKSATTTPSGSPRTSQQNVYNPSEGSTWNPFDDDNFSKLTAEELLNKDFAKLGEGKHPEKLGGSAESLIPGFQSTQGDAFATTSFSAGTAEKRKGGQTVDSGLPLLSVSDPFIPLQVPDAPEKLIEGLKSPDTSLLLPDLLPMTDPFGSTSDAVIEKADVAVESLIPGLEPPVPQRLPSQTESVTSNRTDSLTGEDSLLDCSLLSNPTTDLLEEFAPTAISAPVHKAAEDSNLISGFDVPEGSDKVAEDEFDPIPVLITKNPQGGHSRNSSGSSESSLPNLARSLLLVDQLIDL
Sequence of FER (P16591 whole entry): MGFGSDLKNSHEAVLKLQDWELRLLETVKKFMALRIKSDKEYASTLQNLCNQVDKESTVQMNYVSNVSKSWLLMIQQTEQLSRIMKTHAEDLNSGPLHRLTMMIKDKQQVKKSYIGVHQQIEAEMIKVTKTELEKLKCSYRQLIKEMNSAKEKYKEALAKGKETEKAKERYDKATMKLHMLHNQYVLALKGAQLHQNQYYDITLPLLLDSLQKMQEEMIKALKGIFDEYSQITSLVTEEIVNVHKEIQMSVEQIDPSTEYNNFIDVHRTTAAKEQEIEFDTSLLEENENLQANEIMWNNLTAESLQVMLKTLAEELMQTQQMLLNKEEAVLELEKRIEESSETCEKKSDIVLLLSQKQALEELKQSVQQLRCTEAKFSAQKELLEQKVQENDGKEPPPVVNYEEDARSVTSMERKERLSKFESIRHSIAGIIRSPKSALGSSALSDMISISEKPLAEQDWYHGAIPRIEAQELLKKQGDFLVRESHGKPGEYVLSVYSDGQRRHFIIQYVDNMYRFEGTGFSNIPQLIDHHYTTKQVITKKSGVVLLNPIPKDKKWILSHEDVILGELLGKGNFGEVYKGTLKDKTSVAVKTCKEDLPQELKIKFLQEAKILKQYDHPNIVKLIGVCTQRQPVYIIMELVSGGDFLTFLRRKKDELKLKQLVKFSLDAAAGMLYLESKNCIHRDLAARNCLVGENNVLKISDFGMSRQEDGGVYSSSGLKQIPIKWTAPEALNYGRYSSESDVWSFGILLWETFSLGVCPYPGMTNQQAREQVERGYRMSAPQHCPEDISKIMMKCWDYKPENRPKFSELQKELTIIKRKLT
Sequence of LIMK1 (P53667 whole entry): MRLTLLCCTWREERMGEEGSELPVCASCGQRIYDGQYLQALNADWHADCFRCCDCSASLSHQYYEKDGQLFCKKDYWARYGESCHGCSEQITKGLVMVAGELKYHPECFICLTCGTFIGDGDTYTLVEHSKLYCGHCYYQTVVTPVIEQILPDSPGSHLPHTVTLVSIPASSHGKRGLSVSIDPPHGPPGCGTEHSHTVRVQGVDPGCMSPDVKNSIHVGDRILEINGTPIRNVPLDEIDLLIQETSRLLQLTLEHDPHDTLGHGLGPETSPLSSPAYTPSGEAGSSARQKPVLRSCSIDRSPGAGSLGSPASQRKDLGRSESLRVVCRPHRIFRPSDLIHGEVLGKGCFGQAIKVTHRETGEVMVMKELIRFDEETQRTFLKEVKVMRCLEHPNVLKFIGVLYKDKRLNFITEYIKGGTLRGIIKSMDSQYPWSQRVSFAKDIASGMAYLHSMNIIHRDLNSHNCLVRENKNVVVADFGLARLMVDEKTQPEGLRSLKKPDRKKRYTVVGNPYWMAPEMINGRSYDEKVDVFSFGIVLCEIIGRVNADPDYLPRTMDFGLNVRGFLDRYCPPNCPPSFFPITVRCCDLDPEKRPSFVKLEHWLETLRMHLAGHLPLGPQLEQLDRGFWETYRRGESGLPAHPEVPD
Sequence of ERN1 (O75460 whole entry): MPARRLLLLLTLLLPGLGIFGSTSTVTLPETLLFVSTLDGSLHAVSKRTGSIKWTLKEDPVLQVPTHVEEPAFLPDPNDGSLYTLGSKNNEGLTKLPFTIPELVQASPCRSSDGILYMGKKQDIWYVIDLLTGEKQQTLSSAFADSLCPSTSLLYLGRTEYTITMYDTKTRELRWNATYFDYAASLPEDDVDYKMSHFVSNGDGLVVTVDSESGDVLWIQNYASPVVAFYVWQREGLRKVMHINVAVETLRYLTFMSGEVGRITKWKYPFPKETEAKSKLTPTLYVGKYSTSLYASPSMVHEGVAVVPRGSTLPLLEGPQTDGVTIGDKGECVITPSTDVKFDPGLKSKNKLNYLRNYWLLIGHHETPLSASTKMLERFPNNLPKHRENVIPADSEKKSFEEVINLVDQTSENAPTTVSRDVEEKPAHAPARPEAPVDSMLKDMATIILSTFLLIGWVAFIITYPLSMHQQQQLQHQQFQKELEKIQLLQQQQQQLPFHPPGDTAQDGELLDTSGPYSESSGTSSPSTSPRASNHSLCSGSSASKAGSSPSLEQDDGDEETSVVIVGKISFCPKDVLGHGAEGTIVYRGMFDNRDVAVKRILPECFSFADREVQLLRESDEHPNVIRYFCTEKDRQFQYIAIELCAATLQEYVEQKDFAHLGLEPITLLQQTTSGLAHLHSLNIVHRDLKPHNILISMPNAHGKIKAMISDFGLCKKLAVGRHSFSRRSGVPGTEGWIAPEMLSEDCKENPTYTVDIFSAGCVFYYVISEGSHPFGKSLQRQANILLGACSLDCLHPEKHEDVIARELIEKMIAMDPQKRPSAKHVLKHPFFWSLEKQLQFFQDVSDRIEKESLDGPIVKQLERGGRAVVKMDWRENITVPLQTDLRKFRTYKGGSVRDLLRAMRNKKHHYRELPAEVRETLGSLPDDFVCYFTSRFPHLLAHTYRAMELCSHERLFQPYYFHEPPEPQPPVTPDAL
Sequence of CDK10 (Q15131 whole entry, the tested form may be a part): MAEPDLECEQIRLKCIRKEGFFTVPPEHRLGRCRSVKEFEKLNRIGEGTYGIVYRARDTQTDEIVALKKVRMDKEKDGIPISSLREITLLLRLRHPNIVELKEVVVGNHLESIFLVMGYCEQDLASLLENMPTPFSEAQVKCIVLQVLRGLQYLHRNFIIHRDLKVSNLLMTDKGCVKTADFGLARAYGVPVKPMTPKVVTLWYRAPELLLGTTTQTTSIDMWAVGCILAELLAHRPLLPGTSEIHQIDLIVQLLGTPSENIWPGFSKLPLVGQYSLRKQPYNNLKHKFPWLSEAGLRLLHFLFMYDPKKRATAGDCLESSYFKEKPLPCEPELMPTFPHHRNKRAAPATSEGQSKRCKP
Sequence of MARK4 (Q96L34 whole entry): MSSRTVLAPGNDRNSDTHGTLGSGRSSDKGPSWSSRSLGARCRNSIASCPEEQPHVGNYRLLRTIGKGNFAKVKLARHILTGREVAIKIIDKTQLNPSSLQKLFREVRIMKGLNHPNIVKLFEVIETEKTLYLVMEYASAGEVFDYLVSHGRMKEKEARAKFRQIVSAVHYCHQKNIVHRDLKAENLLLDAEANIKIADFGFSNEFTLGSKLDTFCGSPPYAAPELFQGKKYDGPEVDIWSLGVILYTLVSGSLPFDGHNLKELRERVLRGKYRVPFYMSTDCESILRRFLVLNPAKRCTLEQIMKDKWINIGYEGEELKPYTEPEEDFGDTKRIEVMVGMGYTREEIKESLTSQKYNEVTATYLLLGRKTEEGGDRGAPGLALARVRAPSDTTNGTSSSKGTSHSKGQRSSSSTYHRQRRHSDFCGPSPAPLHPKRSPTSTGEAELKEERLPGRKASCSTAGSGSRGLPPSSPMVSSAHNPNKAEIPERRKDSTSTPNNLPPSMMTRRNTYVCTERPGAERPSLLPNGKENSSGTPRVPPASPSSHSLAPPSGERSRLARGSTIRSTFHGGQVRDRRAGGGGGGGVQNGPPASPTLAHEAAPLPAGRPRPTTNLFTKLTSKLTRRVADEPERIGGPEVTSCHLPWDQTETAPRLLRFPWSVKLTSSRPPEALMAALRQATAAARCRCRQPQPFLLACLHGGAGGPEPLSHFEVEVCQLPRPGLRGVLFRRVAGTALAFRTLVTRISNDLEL
Sequence of PHKG2 (P15735 whole entry): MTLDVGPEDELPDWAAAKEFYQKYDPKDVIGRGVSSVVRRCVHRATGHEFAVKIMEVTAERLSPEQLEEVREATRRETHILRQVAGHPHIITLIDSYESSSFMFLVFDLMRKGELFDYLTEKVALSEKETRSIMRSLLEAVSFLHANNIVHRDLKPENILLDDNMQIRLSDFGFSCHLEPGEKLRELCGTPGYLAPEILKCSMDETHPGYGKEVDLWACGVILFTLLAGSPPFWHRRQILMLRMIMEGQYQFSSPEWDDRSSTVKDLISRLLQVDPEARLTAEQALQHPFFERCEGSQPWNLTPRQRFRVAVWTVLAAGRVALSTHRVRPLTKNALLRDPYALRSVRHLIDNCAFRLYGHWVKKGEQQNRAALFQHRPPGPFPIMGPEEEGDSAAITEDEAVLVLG

- inhibition at 1 µM (CDK10): 8%
- inhibition at 1 µM (NUAK1): 36%
- inhibition at 1 µM (PHKG2): 3%
- inhibition at 1 µM (FER): 16%
- inhibition at 1 µM (JAK3): 2%
- inhibition at 1 µM (AAK1): -14%
- inhibition at 1 µM (RPS6KA6): -10%
- inhibition at 1 µM (CDKL2): 21%
- inhibition at 1 µM (ERN1): -3%
- inhibition at 1 µM (CDK9): 4%
- inhibition at 1 µM (SNRK): -4%
- inhibition at 1 µM (CSNK1A1L): -6%
- inhibition at 1 µM (NLK): -1%
- inhibition at 1 µM (INSR): 20%
- inhibition at 1 µM (BMP2K): 11%
- inhibition at 1 µM (MARK4): -15%
- inhibition at 1 µM (LIMK1): 29%
- inhibition at 1 µM (STK4): 11%
SMILES: C[C@@H](Oc1cc(-c2cnn(C3CCNCC3)c2)cnc1N)c1c(Cl)ccc(F)c1Cl [crizotinib]
